Source: US20260265234A1, “RUPATIFEN FUMARATE CRYSTAL FORM C, AND PREPARATION METHOD THEREFOR AND USE THEREOF” (FUJIAN MINDONG REJUENATION PHARMACEUTICAL CO., LTD., priority 2022, published 2026)
Read-outs that look alike come from different tables or passages of the source.

What was measured:
Type in all cases: physicochemical
[1] = Fluidity detection: angle of repose by fixed cone bottom method; settings: average of three, <30° fluidity better, >40° poor
From the text: Measurement of angle of repose: a fixed cone bottom method was used, the funnel was fixed on a horizontal coordinate paper at a proper height, so that the distance from a lower opening of the funnel to the coordinate paper was H, the powder was carefully poured into the funnel until the tip of a cone formed below the funnel contacted an outlet of the funnel, the radius r of the cone can be measured by the coordinate paper, and measured three times continuously, and the average value was taken as the result. The angle of repose a was calculated as follows: […]
Judgment standard: when the angle of repose is <30°, the fluidity is better. When the angle of repose is >40°, the fluidity is poor.

[2] = Hygroscopicity analysis (weight gain, Chinese Pharmacopoeia 2020 guideline 9103); settings: 25° C.±1° C., 24 hours; for Weight Gain: constant humidity
Experimental: 1) a dry glass weighing bottle with a plug (with an outer diameter of 50 mm and a height of 15 mm) was taken and placed in a proper constant-temperature dryer (the lower part was placed with ammonium chloride or ammonium sulfate saturated solution) at 25° C.±1° C. one day before the test; and the weight of the weighing bottle was precisely measured (m 1).
2) a proper amount of the test sample was taken, tiled in the weighing bottle, wherein the thickness of the test sample was about 1 mm, and the weight of the test sample was precisely measured (m 2). 3) the weighing bottle was opened, and placed with its bottle cap under the constant temperature and humidity conditions for 24 hours.
4) the bottle cap was covered well and the weight of […] was precisely measured (m 3).
According to 9103 guideline principle on drug hygroscopicity test in four part of Chinese Pharmacopoeia 2020 edition, the description of hygroscopicity characteristics and the definition of hygroscopicity weight gain are as follows:
Deliquescence: enough water is absorb to form liquid.
Extremely hygroscopic: the weight gain due to hygroscopicity is not less than 15%.
Hygroscopic: the weight gain due to hygroscopicity is less than 15% but not less than 2%.
Slightly hygroscopic: the weight gain due to hygroscopicity is less than 2% but not less than 0.2%.
No or almost no hygroscopicity: the weight gain due to hygroscopicity is less than 0.2%.

[3] = Solubility analysis in water and media of different pH, HPLC; settings: for solubility thermodynamic: thermodynamic from solid, read-out: Concentration
Experimental: The excessive test sample was put into a dissolution instrument cup, added with water and an appropriate amount of water-soluble medium with different pH values (pH=1.2, 2.2, 4.0, 4.5, 5.5, 6.8), stirred at 37° C.±1° C. (rotation speed: 100 r/min) for dissolution (more than 6 hours) to form a […] solution, the saturated solution was filtered, the filtrate was diluted with a mobile phase by corresponding times, the concentration was measured by HPLC method, and the solubility was calculated.

[4] = Oil-water distribution coefficient log P (n-octanol-water) by HPLC retention time; settings: HPLC retention time against standards of known log P
From the text: The standard substance having known log P (n-octanol-water) was used, the log P (n-octanol-water) of the substance to be tested was detected by HPLC. The principle is based on the fact that the retention time of chemical substances in a long hydrocarbon chain chromatographic column such as C18 column is related to their hydrocarbon-water distribution coefficient. Hydrophilic substances are eluted first, lipophilic substances are eluted later, and the oil-water distribution coefficient and the retention time are in a linear relationship, and the equation is as follows: [formula] [formula] log P: oil-water partition coefficient of samples (n-octanol-water); T0: dead time (measured by uracil here); Tn: retention time of samples by HPLC; according to the above formula, a linear relationship formula can be established by detecting the retention time of the standard substance and the known log P (n-octanol-water). The theoretical value of log P is used as the ordinate, the log K value is used as the abscissa for drawing, the values of a and b are obtained through calculation, and then the retention time (namely the log K value in the table) of samples to be detected is substituted into the equation to calculate the log P (n-octanol-water) value of samples.

[5] = Water for injection, 37° C.±1° C.

Compound	Angle of Repose [1] [°]	Hygroscopicity [2]	Weight Gain [2] [%]	Concentration [3, 5] [mg/mL]	Equilibrium Solubility [3, 5] [mg/250 ml]	Concentration ([3]; pH = 1.2, 37° C.±1° C.) [mg/mL]	Equilibrium Solubility ([3]; pH = 1.2, 37° C.±1° C.) [mg/250 ml]	Concentration ([3]; pH = 2.2, 37° C.±1° C.) [mg/mL]	Equilibrium Solubility ([3]; pH = 2.2, 37° C.±1° C.) [mg/250 ml]	Concentration ([3]; pH = 4.0, 37° C.±1° C.) [mg/mL]	Equilibrium Solubility ([3]; pH = 4.0, 37° C.±1° C.) [mg/250 ml]	Concentration ([3]; pH = 4.5, 37° C.±1° C.) [mg/mL]	Equilibrium Solubility ([3]; pH = 4.5, 37° C.±1° C.) [mg/250 ml]	Concentration ([3]; pH = 5.5, 37° C.±1° C.) [mg/mL]	Equilibrium Solubility ([3]; pH = 5.5, 37° C.±1° C.) [mg/250 ml]	Equilibrium Solubility ([3]; pH = 6.8, 37° C.±1° C.) [mg/250 ml]	log P (n-octanol-water) [4]	also measured
Cc1cncc(CN2CCC(=C3c4ccccc4CC(=O)c4sccc43)CC2)c1.O=C(O)/C=C/C(=O)O [Crystalline form A, 4-[1-[(5-methylpyridin-3-yl)methyl]piperidyl-4-ylidene]-4,9-dihydro-10H-benzo[4,5]cycloheptyl[1,2-b]thiophen-10-one fumarate]	47	Slightly hygroscopic (the weight gain due to hygroscopicity is less than 2% but not less than 0.2%)	0.3	1.79	448.75	26.68	6669.86	3.00	751.00	2.29	571.88	2.99	747.72	0.34	84.93	3.39	2.8	
Cc1cncc(CN2CCC(=C3c4ccccc4CC(=O)c4sccc43)CC2)c1.O=C(O)/C=C/C(=O)O [Crystalline form B, 4-[1-[(5-methylpyridin-3-yl)methyl]piperidyl-4-ylidene]-4,9-dihydro-10H-benzo[4,5]cycloheptyl[1,2-b]thiophen-10-one fumarate]	50	Slightly hygroscopic (the weight gain due to hygroscopicity is less than 2% but not less than 0.2%)	0.2	1.22	305.45	29.42	7355.56	2.64	659.74	1.41	352.76	1.36	339.48		44.97	2.56		solubility thermodynamic ([3]; water-soluble medium of pH 5.5, 37 °C, pH 5.5, aqueous buffer, pH = 5.5, 37° C.±1° C.): 180 µg/mL; solubility thermodynamic ([3]; water-soluble medium of pH 6.8, 37 °C, pH 6.8, aqueous buffer, pH = 6.8, 37° C.±1° C.): 10 µg/mL; chromatographic logP [4]: 2.9
Cc1cncc(CN2CCC(=C3c4ccccc4CC(=O)c4sccc43)CC2)c1.O=C(O)/C=C/C(=O)O [Crystalline form C, 4-[1-[(5-methylpyridin-3-yl)methyl]piperidyl-4-ylidene]-4,9-dihydro-10H-benzo[4,5]cycloheptyl[1,2-b]thiophen-10-one fumarate]	28	No or almost no hygroscopicity (the weight gain due to hygroscopicity is less than 0.2%)	0.06	2.46	616.34		4908.73		1013.35	2.84	710.90	3.77	942.80	0.31	77.90	4.40	3.2	Angle of Repose ([1]; listed as crystalline form C): less than 30 °; solubility according to the classification system of biopharmaceuticals ([3]; medium with pH=6.8): slightly superior to that of other crystal forms; Concentration ([3]; pH = 6.8, 37° C.±1° C.): 0.018 mg/mL; solubility thermodynamic ([3]; water-soluble medium of pH 1.2, 37 °C, pH 1.2, simulated gastric fluid, pH = 1.2, 37° C.±1° C.): 19600 µg/mL; solubility thermodynamic ([3]; water-soluble medium of pH 2.2, 37 °C, pH 2.2, aqueous buffer, pH = 2.2, 37° C.±1° C.): 4050 µg/mL
Cc1cncc(CN2CCC(=C3c4ccccc4CC(=O)c4sccc43)CC2)c1.O=C(O)/C=C/C(=O)O [Mixed crystal, 4-[1-[(5-methylpyridin-3-yl)methyl]piperidyl-4-ylidene]-4,9-dihydro-10H-benzo[4,5]cycloheptyl[1,2-b]thiophen-10-one fumarate]	49	Slightly hygroscopic (the weight gain due to hygroscopicity is less than 2% but not less than 0.2%)	0.4	1.98	495.71	24.47	6117.84	3.40	849.73	2.53	633.71	3.43	856.32		76.85	3.61	2.7	
